# Measurements from PubChem BioAssay AID489035 (Sanford-Burnham Center for Chemical Genomics, 2010).
# Active and inactive are the calls of the source. How the calls were made is not given here.
# System: Jurkat NF-kB reporter, TCR-induced, luciferase luminescence
# Test: T-cell NF-kB luciferase reporter inhibition – Jurkat cells, luminescence, dose response (AID 489035)
row,SMILES,IC50
1,O=C(Sc1cccc2cccnc12)c1ccccc1Br,3.21 µM
2,O=C(NNc1ccnc2cc(Cl)ccc12)C1CCCCC1,> 80 µM (inactive)
3,COc1cc([C@@H]2c3cc4c(cc3[C@@H](OC)[C@H]3COC(=O)[C@H]23)OCO4)cc(OC)c1O,> 80 µM (inactive)
4,CC1C/C(=C/c2ccncc2)C(=O)/C(=C/c2ccncc2)C1 (configuration not stated),1.39 µM
5,C=C(C=O)C[C@@H]1C[C@H](O)C2OC3C[C@]4(C)OC5/C=C\CC6OC7C(CC=CCC6OC5CCCC4OC3CC2O1)OC1CC2OC3CC(=O)OC3C[C@@H](C)C[C@@]2(C)OC1C[C@@H]7C (some centres not stated),1.39 µM
6,Cc1ccc(O)c(NC(=O)c2cc(-c3ccco3)on2)c1,> 80 µM (inactive)
7,Cc1ccccc1NS(=O)(=O)c1ccc(N2CCCC2=O)cc1,71.8 µM (inactive)
8,CCCCOc1ccc(Br)cc1/C(C)=N/NC1=NCCN1,5.51 µM
9,Cc1nc(SCC(=O)Nc2nc3ccccc3s2)c(C#N)c(C)c1C,0.75 µM
10,CC(C)Cn1c(N)c(C(=O)CSc2ccc3c(c2)OCCO3)c(=O)n(C)c1=O,< 0.16 µM
11,COc1cc(CC(=O)OCC(=O)c2ccc3c(c2)OCCO3)cc(OC)c1OC,> 80 µM (inactive)
12,CCCCCCCOc1ccc(OC(=O)c2cccnc2)cc1,> 80 µM (inactive)
13,COc1ccc(CCN2C(=O)C3C4C=CC(C3C2=O)C2C(=O)N(CCc3ccc(OC)c(OC)c3)C(=O)C42)cc1OC (configuration not stated),> 80 µM (inactive)
14,O=C(Sc1cccc2cccnc12)c1ccc(F)cc1,0.99 µM
15,COc1ccc(NC(=O)Cn2nnc(-c3ccccc3NS(=O)(=O)c3ccc(OC)cc3)n2)cc1,> 80 µM (inactive)
16,COc1ccc(S(=O)(=O)/N=C2\C=C(Nc3ccc(O)cc3)C(=O)c3ccccc32)cc1,0.53 µM
17,CCOc1ccccc1NS(=O)(=O)c1ccc(-c2cnc(C3CC3)o2)cc1,6.3 µM
18,COc1cccc2sc(Nc3nnc(-c4ccccc4Cl)o3)nc12,> 80 µM (inactive)
19,CC1(C)CC(N2CCN(C(c3ccccc3)c3ccccc3)CC2)=CC(=[N+]2CCCCC2)C1,15.9 µM
20,Cc1ccc(C)c(CSc2nc3[nH]ncc3c(=O)[nH]2)c1,39.2 µM (inactive)
21,CC1CC(C)CN(S(=O)(=O)c2ccc(NC(=O)c3ccc(=O)[nH]c3)cc2)C1 (configuration not stated),> 80 µM (inactive)
22,CCOc1ccccc1C(=O)N1CCN(c2cccc(Cl)c2)CC1,> 80 µM (inactive)
23,COc1cc([C@@H]2c3cc4c(cc3[C@H](O)[C@H]3COC(=O)[C@H]23)OCO4)cc(OC)c1OC,> 80 µM (inactive)
24,COc1ccc(C(C(=O)NC2CCCCC2)N(C(=O)CCl)c2ccc(C)cc2)cc1 (configuration not stated),0.33 µM
25,COc1ccc(OC)c(Nc2cc(-c3ccccc3)nc(N)n2)c1,26.9 µM (inactive)
26,COc1cc(C(=O)Nc2ccc3c(c2)ncn3C)cc(OC)c1OC,> 80 µM (inactive)

row,SMILES,IC50
1,COc1ccc(OC)c(CCNC(=O)Cn2nc(C)c3c(C)n(-c4ccc(C)cc4)nc3c2=O)c1,7.63 µM
2,CCCC(=O)NC(c1ccc(C)cc1)c1ccc2cccnc2c1O (configuration not stated),8.63 µM
3,CC1CCCN(c2ncnc3c2cnn3-c2ccc(Cl)cc2)C1 (configuration not stated),10.5 µM
4,COc1cc(C2C3=C(Nc4ncnn42)c2ccccc2CC3)cc(OC)c1OC (configuration not stated),6.79 µM
5,COc1cc(Nc2ccc(C)cc2)c([N+](=O)[O-])nc1[N+](=O)[O-],> 80 µM (inactive)
6,COc1ccc([C@H]2CC(=O)C=C(c3ccc(OC)cc3OC)C2)cc1,> 80 µM (inactive)
7,COc1ccc(CS(=O)(=O)/C(Cl)=C(/Cl)C(=O)Nc2ccc(OC)nc2)cc1,0.45 µM
8,O=S1(=O)C=C(Sc2nc3cc(Cl)ccc3o2)c2ccccc21,< 0.16 µM
9,CCOC(=O)CC1CCCCN1C(=O)c1cc(COc2cccc3cnccc23)on1 (configuration not stated),6.39 µM
10,CCN1/C(=C/C(C)=C/c2sc3ccccc3[n+]2CC)Sc2ccccc21,4.63 µM
11,Cc1c(C(=O)N2CCOCC2)[nH]c2c1C(=O)CC(c1ccccc1Cl)C2 (configuration not stated),> 80 µM (inactive)
12,Cc1cc(C(C)(C)C)cc(C)c1C[n+]1ccc2ccccc2c1,58.9 µM (inactive)
13,Cc1cccc(N2CCN(C(=O)c3ccc4[nH]c(C)c(C)c4c3)CC2)c1C,> 80 µM (inactive)
14,COc1cc(C2=NOC(C(=O)NCc3ccc(F)cc3)C2)cc(OC)c1OC (configuration not stated),6.16 µM
15,COc1ccc(C(NC(=O)C(C)C)c2ccc3cccnc3c2O)cc1 (configuration not stated),5.96 µM
16,COc1ccc(/C=N/NC(=O)c2[nH]c3ccc(Br)cc3c2-c2ccccc2)cc1,1.64 µM
17,CC(=O)Nc1ccc(S(=O)(=O)N2CCSc3ccccc32)cc1,> 80 µM (inactive)
18,COc1ccc(CC(=O)Nc2nc(-c3ccc(F)c(F)c3)cs2)cc1OC,22.4 µM (inactive)
19,COC(=O)c1[nH]c2c(c1C)C(=O)CC(c1cccs1)C2 (configuration not stated),> 80 µM (inactive)
20,CCOC(=O)c1c(C)[nH]c(C(=O)N/N=C/c2ccc(Br)cc2)c1C,9.36 µM
21,CC1=C([N+](=O)[O-])C(c2ccccc2)C2=C(N1)c1ccccc1C2=O (configuration not stated),30.3 µM (inactive)
22,COc1ccc(OC)c(-c2nnc3n2N=C(c2ccc(OC)c(OC)c2)CS3)c1,9.88 µM
23,CCOc1ccc(N(C)S(=O)(=O)c2ccc(-c3cc(C)no3)s2)cc1,> 80 µM (inactive)
24,Cc1ncoc1C(=O)NC1CCCc2c1cnn2-c1ccc(C(C)(C)C)cc1 (configuration not stated),> 80 µM (inactive)
25,COc1cc2c(c(OC)c1OC)-c1ccc(OC)c(=O)cc1[C@@H](N(C)CC#CCO)CC2,> 80 µM (inactive)
26,Cc1cc(C)cc(NC(=O)c2cc(C)n(Cc3cccs3)c2C)c1,5.13 µM

row,SMILES,IC50
1,CC(=O)NC(c1ccc2ccccc2c1)c1ccc2cccnc2c1O (configuration not stated),7.22 µM
2,Cc1ccc(C(=O)c2cc([N+](=O)[O-])ccc2N2CCCCC2)c(C)c1,> 80 µM (inactive)
3,CCOC(=O)C(C)Oc1cccc2c(=O)n(CC(=O)NCc3ccccc3)ccc12 (configuration not stated),> 80 µM (inactive)
4,O=C(Nc1ccc(Cc2ccncc2)cc1)c1ccc(S(=O)(=O)N2CCCC2)cc1,77.4 µM (inactive)
5,O=S(=O)(C/C(=C/CO)S(=O)(=O)c1ccccc1)c1ccccc1,0.77 µM
6,Cc1ccc(-c2nc(-c3ccccn3)no2)cc1,2.34 µM
7,Cc1c(C)c2ccc(OCC(=O)Nc3ccccn3)c(C)c2oc1=O,0.39 µM
8,CCn1cc(C(=O)NC2CCCc3c2cnn3-c2cccc(C)c2C)cn1 (configuration not stated),> 80 µM (inactive)
9,COc1ccccc1CNS(=O)(=O)c1ccc(-c2cc(C)no2)cc1,> 80 µM (inactive)
10,Cc1nc(Nc2nc3c(c(=O)[nH]2)CCC3)nc2ccccc12,3.66 µM
11,C/C(=N\NC(=O)c1ccc(Cl)c(Cl)c1)c1ccccn1,1.3 µM
12,CCCCCCCCCCn1ccc(=N)cc1,3.84 µM
13,COC(=O)c1ccccc1NC(=O)CSc1nc(-c2ccco2)cc(C(F)(F)F)n1,72.2 µM (inactive)
14,Cc1ccc(C(=O)O/N=C(\N)c2ccccn2)c(C)c1,0.42 µM
15,Cc1ccc2c(c1)C=CC(C#N)N2C(=O)c1ccccc1 (configuration not stated),> 80 µM (inactive)
16,COc1ccc(C2=NOC(C(=O)NCc3ccc(F)cc3)C2)cc1OC (configuration not stated),> 80 µM (inactive)
17,Cc1cc(C)c(CN2CCN(C(=O)Cn3cnc4c(OCc5ccccc5)ncnc43)CC2)c(C)c1,> 80 µM (inactive)
18,O=C(Nc1ccncc1)C1CCCN(S(=O)(=O)c2cccc3cccnc23)C1 (configuration not stated),> 80 µM (inactive)
19,CCCOc1ccc(/C=N/Nc2cc(N3CCOCC3)ncn2)c(O)c1,10 µM
20,O=S1(=O)Nc2c(ccc3cccnc23)-c2ccccc21,2.17 µM
21,Cc1ccc(C(=O)c2cc([N+](=O)[O-])ccc2N2CCOCC2)cc1C,19.6 µM
22,COc1ccc(C(=O)c2ccc(N(C)C)cc2)c(OC)c1,> 80 µM (inactive)
23,Cc1ccc(C)c(N=Nc2ccc(O)c3ncccc23)c1,28.3 µM (inactive)
24,COc1ccc2nc(C)cc(N/N=C/c3ccc(F)cc3)c2c1,2.35 µM
25,CC[C@@]1(O)C(=O)OCc2c1cc1n(c2=O)Cc2cc3c(CN(C)C)c(O)ccc3nc2-1,0.2 µM
26,COc1cc(/C=C/[N+](=O)[O-])ccc1OCc1cccc(C(=O)O)c1,0.55 µM

row,SMILES,IC50
1,COc1ccc(CNS(=O)(=O)c2cc(-c3cc(C)no3)ccc2C(C)C)cc1,64.6 µM (inactive)
2,COc1cc(-c2noc(C)c2-c2ccc(N(C)C)nc2)cc(OC)c1OC,> 80 µM (inactive)
3,Cc1noc(C)c1COc1ccc(CC(=O)NCc2ccccc2)cc1,> 80 µM (inactive)
4,CC1=C(C(=O)OCc2ccc3c(c2)OCO3)C(c2ccc(Cl)cc2)NC(=O)N1 (configuration not stated),0.63 µM
5,CCOc1ccc(N(CC(=O)Nc2ccccc2C)S(=O)(=O)c2c(C)noc2C)cc1,> 80 µM (inactive)
6,O=S1(=O)C=C(Sc2nc3ccccc3s2)c2ccccc21,0.26 µM
7,CC1Cc2cc(-c3csc(NC(=O)Cc4cccs4)n3)ccc2N1S(C)(=O)=O (configuration not stated),5.4 µM
8,CCN1C=CC(=C2C(=O)c3ccccc3C2=O)C=C1,1.03 µM
9,Cc1ccc(-c2cc3c(N=O)c4ccccc4c-3n[nH]2)cc1,1.65 µM
10,COc1cc(-c2noc(C)c2/C=C/c2cccc([N+](=O)[O-])c2)cc(OC)c1OC,> 80 µM (inactive)
11,CCOc1ccccc1C1CC(=O)Nc2cc3c(cc21)OCO3 (configuration not stated),67.1 µM (inactive)
12,CCCC(=O)Nc1nc2ccc(NC(=O)c3c(F)c(F)c(OC)c(F)c3F)cc2s1,11.5 µM
13,O=C(COc1ccc2c(-c3ccccc3)cc(=O)oc2c1)Nc1cccnc1,> 80 µM (inactive)
14,COc1ccc(NC(=O)/C(Cl)=C(/Cl)S(=O)Cc2ccccc2)cn1 (configuration not stated),0.26 µM
15,COC(=O)[C@]12OC[C@]34C([C@@H](O)[C@@H]1O)[C@]1(C)CC(=O)C(O)=C(C)[C@@H]1C[C@H]3OC(=O)[C@H](O)[C@@H]24 (some centres not stated),< 0.16 µM
16,C=C1C(=O)O[C@H]2C[C@@H](C)[C@@H]3C=CC(=O)[C@@]3(C)C[C@H]12,1.26 µM
17,COc1ccccc1N1CCN(C(=O)c2cc(=O)c3cc(C)cc(C)c3o2)CC1,2.79 µM
18,CCCCCOC(=O)c1[nH]c2c(c1C)C(=O)CC(c1ccco1)C2 (configuration not stated),> 80 µM (inactive)
19,CCN(CC)c1ccc(-c2nn3c(-c4ccccc4OC)nnc3s2)cc1,20.4 µM (inactive)
20,Cc1c(C)c2cccnc2c2ncccc12,2.02 µM
21,Cc1ccsc1/C=N/NC(=O)c1cc(-c2ccncc2)nc2ccccc12,35.1 µM (inactive)
22,CCc1ccc(/C=N/NC(=O)c2cc(-c3ccncc3)nc3ccccc23)s1,> 80 µM (inactive)
23,Cc1ccc(C(=O)Nc2ncc(Cc3ccc(SC(F)F)cc3)s2)cc1,> 80 µM (inactive)
24,COc1ccc(OCC(=O)Nc2ccccc2N2CCCCC2)cc1,> 80 µM (inactive)
